Reference: patent US20260347355A1, “COMPOUNDS” (Hoffmann-La Roche Inc., priority 2023, published 2026)

Experiments:
[1] = target: T1, NLRP3 (Homo sapiens, UniProt Q96P20); assay: Human whole blood IL-1β release assay (LPS, nigericin; AlphaLISA); assay type: cell-based; design: Human whole blood in Li-heparin tubes was obtained from healthy donors from a volunteer donor panel; from tissue; host or cells: human whole blood from healthy volunteer donors; details: 1 μg/ml LPS, 10 μM nigericin, 3 h compound pre-incubation
T1 sequence (Q96P20 whole entry): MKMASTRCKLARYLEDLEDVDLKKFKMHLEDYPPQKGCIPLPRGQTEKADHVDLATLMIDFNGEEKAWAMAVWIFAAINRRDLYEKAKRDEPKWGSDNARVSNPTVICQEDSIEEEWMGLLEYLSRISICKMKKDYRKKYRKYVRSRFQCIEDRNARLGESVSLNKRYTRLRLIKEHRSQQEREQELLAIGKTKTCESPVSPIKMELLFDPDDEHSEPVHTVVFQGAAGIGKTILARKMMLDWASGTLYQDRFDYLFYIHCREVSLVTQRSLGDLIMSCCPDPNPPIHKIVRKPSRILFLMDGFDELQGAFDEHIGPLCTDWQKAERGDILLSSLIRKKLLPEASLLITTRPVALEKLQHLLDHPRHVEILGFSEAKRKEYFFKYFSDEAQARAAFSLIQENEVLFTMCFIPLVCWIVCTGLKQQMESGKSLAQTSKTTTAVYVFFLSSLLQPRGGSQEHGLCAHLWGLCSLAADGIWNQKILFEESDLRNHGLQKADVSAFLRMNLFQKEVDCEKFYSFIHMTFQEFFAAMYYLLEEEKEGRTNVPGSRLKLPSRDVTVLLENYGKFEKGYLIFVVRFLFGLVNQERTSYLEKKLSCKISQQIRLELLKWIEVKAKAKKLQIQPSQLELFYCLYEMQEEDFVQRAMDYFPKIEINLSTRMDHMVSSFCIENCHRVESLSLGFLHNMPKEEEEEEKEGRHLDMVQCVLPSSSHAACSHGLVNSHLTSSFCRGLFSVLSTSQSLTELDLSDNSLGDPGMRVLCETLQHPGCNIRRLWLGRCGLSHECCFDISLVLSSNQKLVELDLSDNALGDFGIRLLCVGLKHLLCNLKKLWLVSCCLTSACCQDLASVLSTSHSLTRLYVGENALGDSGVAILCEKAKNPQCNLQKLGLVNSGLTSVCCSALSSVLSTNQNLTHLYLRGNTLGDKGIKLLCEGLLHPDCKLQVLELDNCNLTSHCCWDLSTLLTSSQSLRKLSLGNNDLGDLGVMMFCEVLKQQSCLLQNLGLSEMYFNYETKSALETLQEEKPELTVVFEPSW
Procedure: Human Whole Blood IL-1β Release Assay
For systemic delivery, the ability to inhibit NLRP3 when the compounds are present within the bloodstream is of great importance. For this reason, the NLRP3 inhibitory activity of a number of compounds in human whole blood was investigated in accordance with the following protocol.
Human whole blood in Li-heparin tubes was obtained from healthy donors from a volunteer donor panel.
(§1) Incubate for 3 hours at 37 °C, 5% CO2
Add 10 μl nigericin (Sigma #N7143) (10 μM FAC) to all wells
(§2) Incubate for 1 hr at 37 °C, 5% CO2
At the end of the incubation period, spin plates at 300×g for 5 mins to pellet cells and remove 20 μl of supernatant and add to 96-well v-bottom plates for IL-1β analysis (note: these plates containing the supernatants can be stored at −80 °C to be analysed at a later date)
IL-1β was measured according to the manufacturer protocol (Perkin Elmer-AlphaLisa IL-1 Kit AL220F-5000)
(§3) IC50 data is fitted to a non-linear regression equation (log inhibitor vs response-variable slope 4-parameters)

[2] = target: T1, NLRP3; assay: THP-1 cells pyroptosis assay (LPS primed, nigericin stimulated, resazurin readout); assay type: cell-based; design: endogenous in cells; host or cells: THP-1 cells (ATCC TIB-202); details: THP-1 pyroptosis Assay IC50, THP-1 cells, 1 μg/ml LPS, 5 μM nigericin, 3 h compound pre-incubation
Procedure: Therefore, it is anticipated that inhibitors of NLRP3 will block pyroptosis, as well as the release of pro-inflammatory cytokines (e.g. IL-1β) from the cell.
THP-1 Cells: Culture and Preparation
The cells were routinely passaged and grown to confluency (~10^6cells/ml). On the day of the experiment, THP-1 cells were harvested and resuspended into RPMI medium (without FBS). […] To this diluted cell solution was added LPS (Sigma #L4524) to give a 1 μg/ml Final Assay Concentration (FAC). 40 μl of the final preparation was aliquoted into each well of a 96-well plate. The plate thus prepared was used for compound screening.
THP-1 Cells Pyroptosis Assay
The following method step-by-step assay was followed for compound screening.
as §1
Add 5 μl nigericin (Sigma #N7143) (FAC 5 μM) to all wells
as §2
At the end of the incubation period, spin plates at 300×g for 3 mins and remove supernatant
Then add 50 μl of resazurin (Sigma #R7017) (FAC 100 μM resazurin in RPMI medium without FBS) and incubate plates for a further 1-2 hours at 37 °C and 5% CO2
as §3

[3] = target: T2, human ether-i-go-go-related gene (hERG) cardiac potassium channel (Homo sapiens, UniProt Q12809); assay: hERG screening assay (automated patch clamp, CHO crelox hERG cells); assay type: cell-based; details: SynchroPatch 384, 35-37 °C, 0.1 Hz, read-out: hERG inhibition IC20
T2 construct: whole-cell automated patch clamp, SynchroPatch 384, 35-37 °C
T2 sequence (Q12809 whole entry): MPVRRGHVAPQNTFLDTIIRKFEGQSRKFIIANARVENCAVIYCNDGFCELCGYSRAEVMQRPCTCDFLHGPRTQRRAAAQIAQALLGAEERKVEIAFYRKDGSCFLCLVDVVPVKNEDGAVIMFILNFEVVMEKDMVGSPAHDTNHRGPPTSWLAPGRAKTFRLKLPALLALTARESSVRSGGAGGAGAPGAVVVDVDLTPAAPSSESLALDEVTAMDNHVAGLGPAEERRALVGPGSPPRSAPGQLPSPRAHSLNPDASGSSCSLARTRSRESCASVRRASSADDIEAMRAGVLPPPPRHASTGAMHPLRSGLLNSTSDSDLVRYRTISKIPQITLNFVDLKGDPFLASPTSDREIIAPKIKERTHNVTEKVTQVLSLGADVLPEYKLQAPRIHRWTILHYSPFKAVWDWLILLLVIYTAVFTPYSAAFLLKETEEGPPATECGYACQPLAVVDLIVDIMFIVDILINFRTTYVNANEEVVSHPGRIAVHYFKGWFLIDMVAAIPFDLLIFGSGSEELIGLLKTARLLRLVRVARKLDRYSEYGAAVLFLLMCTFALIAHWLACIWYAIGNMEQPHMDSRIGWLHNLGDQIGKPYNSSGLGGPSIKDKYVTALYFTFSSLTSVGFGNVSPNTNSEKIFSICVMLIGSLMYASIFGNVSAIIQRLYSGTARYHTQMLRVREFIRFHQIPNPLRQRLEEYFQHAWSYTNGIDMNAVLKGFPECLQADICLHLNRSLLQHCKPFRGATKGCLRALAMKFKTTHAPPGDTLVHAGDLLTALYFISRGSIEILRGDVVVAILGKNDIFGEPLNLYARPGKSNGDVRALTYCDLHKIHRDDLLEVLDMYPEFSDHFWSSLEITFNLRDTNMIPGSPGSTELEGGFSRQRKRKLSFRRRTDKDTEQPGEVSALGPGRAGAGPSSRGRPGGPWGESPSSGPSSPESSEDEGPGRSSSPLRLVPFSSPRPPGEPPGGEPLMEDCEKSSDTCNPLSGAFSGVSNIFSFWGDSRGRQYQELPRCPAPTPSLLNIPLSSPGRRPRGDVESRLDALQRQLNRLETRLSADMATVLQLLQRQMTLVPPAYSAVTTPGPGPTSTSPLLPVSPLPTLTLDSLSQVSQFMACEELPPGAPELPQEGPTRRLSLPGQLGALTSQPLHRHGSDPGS
Description: In the drug development process of small molecules, one of the most frequent adverse side effects, leading to the failure of drugs, is the cardiac arrhythmias. Such failure is often related to the capacity of the drug to inhibit the human ether-i-go-go-related gene (hERG) cardiac potassium channel. Having no or low inhibition of the hERG cardiac potassium channel is therefore considered as beneficial.
The CHO crelox hERG cell line (ATCC reference Nr. PTA-6812, female Chinese hamster cells) was generated and validated at Roche. Ready-to-use frozen instant CHO-hERG cells were cryopreserved at Evotec (Germany) and used directly in the experiments.
The extracellular solution contains (in mM): NaCl 150; KCl 4; CaCl2 1; MgCl2 1; HEPES 10; pH 7.2-7.4 with NaOH, osmolarity 290-330 mOsm. […]
The effects of a compound on hERG K+-currents parameters will be evaluated at 2 concentrations in at least 4 cells.
The hERG test is performed using automated patch clamp system SynchroPatch® 384 (Nanion Technologies GmbH, Germany). K+ currents are measured with the patch-voltage-clamp technique in the whole-cell configuration at 35-37 °C. […]
The amplitudes of IKhERG were recorded in each concentration of drug and they were compared to the vehicle control values (taken as 100%) to define fractional blocks. […]

[4] = target: T1, NLRP3; design: THP-1 cells (ATCC #TIB-202) were grown in RPMI; endogenous in cells; host or cells: THP-1 cells (ATCC TIB-202); details: cited from earlier work
[5] = tested on: NLRC4; details: cited from earlier work
[6] = tested on: NLRP1; details: cited from earlier work
[7] = tested on: CAPS; details: biologic agents that target IL-1; cited from earlier work

Q: What does the source list for `O[C@@H]1CCCC[C@H]1Nc1nnc(-c2ccc3cc[nH]c3c2)c2ccncc12` (racemic) [Example 3, rac-(1R,2R)-2-[[1-(1H-Indol-6-yl)pyrido[3,4-d]pyridazin-4-yl]amino]cyclohexanol]?
A: IC50 [1]: 108 nM; IC50 [2]: 99 nM

Q: Which IC50 [1] does the source give for `Oc1c(-c2nnc(NCC3CCOC3)c3cnccc23)ccc2c1CCO2` (racemic) [Example 5, 5-[4-[[rac-(3S)-Tetrahydrofuran-3-yl]methylamino]pyrido[3,4-d]pyridazin-1-yl]-2,3-dihydrobenzofuran-4-ol] here?
A: 37 nM

Q: What about the IC50 [2] of the same compound?
A: 38 nM

Q: For `Oc1c(-c2nnc(N[C@H]3CCCC[C@@H]3O)c3cnccc23)ccc2c1CCO2` (relative stereo) [Example 2B, 5-[4-[[rel-(1S,2S)-2-Hydroxycyclohexyl]amino]pyrido[3,4-d]pyridazin-1-yl]-2,3-dihydrobenzofuran-4-ol], which IC20 [3] is on record?
A: > 10000 nM

Q: Which IC50 [2] does the source give for `Fc1c[nH]c2cc(-c3nnc(NCC4CCOC4)c4cnccc34)ccc12` (single isomer, unassigned) [Example 4A] here?
A: 134 nM

Q: For `Fc1c[nH]c2cc(-c3nnc(NCC4CCOC4)c4cnccc34)ccc12` (single isomer, unassigned) [Example 4B], which IC50 [2] is on record?
A: 211 nM

Q: Which IC50 [1] does the source give for `Oc1c(-c2nnc(NCC3CCOC3)c3cnccc23)ccc2c1CCO2` (single isomer, unassigned) [Example 5A] here?
A: 32 nM

Q: What about the IC50 [2] of the same compound?
A: 29 nM

Q: What does the source list for `Oc1c(-c2nnc(NCC3CCOC3)c3cnccc23)ccc2c1CCO2` (single isomer, unassigned) [Example 5B]?
A: IC50 [1]: 36 nM; IC50 [2]: 64 nM

Q: With `Oc1c(-c2nnc(NCC3CCCO3)c3cnccc23)ccc2c1CCO2` (single isomer, unassigned) [Example 6A] as the compound, how does the IC50 [1] read?
A: 47 nM

Q: What about the IC50 [2] of the same compound?
A: 58 nM

Q: For `Oc1c(-c2nnc(NCC3CCCO3)c3cnccc23)ccc2c1CCO2` (single isomer, unassigned) [Example 6B], which IC50 [1] is on record?
A: 59 nM

Q: And the IC50 [2]?
A: 63 nM

Q: With `O=[N+]([O-])C=Cc1ccc2c(c1)OCO2` [3,4-methylenedioxy-β-nitrostyrene] as the compound, how does the “NLRP3 inhibition, potency” value [4] read?
A: limited potency

Q: What about the “NLRP3 inhibition, specificity” value [4] of the same compound?
A: nonspecific

Q: For `COCc1cc2c(c(O)c1-c1nnc(N[C@@H]3CCCC[C@H]3O)c3cnccc13)CCO2` [Example 8, 5-[4-[[(1R,2R)-2-Hydroxycyclohexyl]amino]pyrido[3,4-d]pyridazin-1-yl]-6-(methoxymethyl)-2,3-dihydrobenzofuran-4-ol], which IC50 [2] is on record?
A: 21 nM

Q: With `Oc1c(-c2nnc(N[C@H]3CC[C@H](O)CC3)c3cnccc23)ccc2c1CCO2` [Example 9, trans-5-[4-[(4-Hydroxycyclohexyl)amino]pyrido[3,4-d]pyridazin-1-yl]-2,3-dihydrobenzofuran-4-ol] as the compound, how does the IC50 [1] read?
A: 43 nM

Q: And the IC50 [2]?
A: 56 nM

Q: With `Oc1c(-c2nnc(N[C@H]3CC[C@@H](O)CC3)c3cnccc23)ccc2c1CCO2` [Example 11, cis-5-[4-[(4-Hydroxycyclohexyl)amino]pyrido[3,4-d]pyridazin-1-yl]-2,3-dihydrobenzofuran-4-ol] as the compound, how does the IC50 [1] read?
A: 51 nM

Q: And the IC50 [2]?
A: 57 nM

Q: Which IC20 [3] does the source give for `Oc1c(-c2nnc(N[C@@H]3CCOC[C@@H]3O)c3cnccc23)ccc2c1CCO2` [Example 15, 5-[4-[[(3R,4R)-3-Hydroxytetrahydropyran-4-yl]amino]pyrido[3,4-d]pyridazin-1-yl]-2,3-dihydrobenzofuran-4-ol] here?
A: > 10000 nM

Q: What does the source list for `COc1ccc(Cl)cc1C(=O)NCCc1ccc(S(=O)(=O)NC(=O)NC2CCCCC2)cc1` [Glyburide]?
A: inhibition of IL-1β production in response to the activation of NLRC4 [5]: not NLRC4; inhibition of IL-1β production in response to the activation of NLRP1 [6]: not NLRC4 or NLRP1

Q: Which “NLRP3 inhibition, potency” value [4] does the source give for `C[S+](C)[O-]` [dimethyl sulfoxide (DMSO), dimethyl sulfoxide] here?
A: limited potency

Q: What about the “NLRP3 inhibition, specificity” value [4] of the same compound?
A: nonspecific

Q: With `C=C1C(=O)O[C@@H]2[C@H]3O[C@]3(C)CC/C=C(\C)CC[C@@H]12` [parthenolide] as the compound, how does the “NLRP3 inhibition, potency” value [4] read?
A: limited potency

Q: And the “NLRP3 inhibition, specificity” value [4]?
A: nonspecific

Q: With “anakinra: recombinant IL-I receptor antagonist” as the compound, how does the “success in the treatment of CAPS” value [7] read?
A: proven successful in the treatment of CAPS

Q: Which “success in the treatment of CAPS” value [7] does the source give for “canakinumab: neutralizing IL-1β antibody” here?
A: proven successful in the treatment of CAPS

Q: Which “success in the treatment of CAPS” value [7] does the source give for rilonacept here?
A: proven successful in the treatment of CAPS
